From paper PMC4393083, “Antiviral Activity and Possible Mechanism of Action of Constituents Identified in Paeonia lactiflora Root toward Human Rhinoviruses” (PLoS ONE, 2015)
pIC50: −log10 of the molar value. Like-named read-outs stand apart in the source and are kept apart here.

How the values were obtained:
[1] = Cytotoxicity MTT assay in MRC5 cells; format: cell-based, human; details: human, tetrazolium assay, read-out: CC50 (95% CL)
Procedure: (§1) The cytotoxicity of the test materials to two human cell lines was evaluated using an MTT assay described previously by Morgan. In brief, a 10× stock solution of MTT was prepared by adding 5 mg/mL MTT in phosphate-buffered saline (PBS) (pH 7.4). The stock solution was sterile-filtered and stored at −20°C. HeLa and MRC5 cells were seeded onto 96-well culture plates at a density of 3 × 10^4 cells per well for 1 day. The culture medium was removed and the plates with monolayer cells were replaced with media containing several different concentrations (1–1000 μg/mL) of the test materials in dimethylsulfoxide (DMSO). After incubation at 37°C and 5% CO2 for 2 days, the culture plates were then washed once with 200 μL PBS. A volume of 100 μL medium containing 0.05% MTT were added to each well and then incubated for 4 h at the same condition. After then, MTT solution was removed and 150 μL DMSO was added to each well. Finally, the plate was shaken for 15 min to dissolve the purple formazan crystals that had formed. Absorbance was read at 560 nm by using a VersaMax microplate reader (Molecular Devices, Sunnyvale, CA) with a reference absorbance at 670 nm.
(§2) The CC50 and IC50 values were determined using GraphPad Prism 5 software program (GraphPad Software, La Jolla, CA). […] The selectivity index (SI) was determined as the ratio of CC50 to IC50 [23]. All data represent the mean ± SD of duplicate or triplicate samples of three independent experiments. […] Data from two groups were analyzed by a Student’s t-test, and multiple groups were analyzed by a one-way analysis of variance and Bonferroni multiple comparison post-test.

[2] = Cytotoxicity MTT assay in HeLa cells; format: cell-based; details: human, tetrazolium assay, read-out: CC50 (95% CL)
Procedure: as §1, §2

HRV-4 = assay: Cytopathic effect inhibition assay (MTT), HRV-4 in HeLa cells; format: cell-based, human rhinovirus; details: read-out: IC50 (95% CL) HRV-4
Procedure: Extraction procedures of air-dried root of P. lactiflora were performed as described previously by Ngan et al.. For isolation of active principles, viral CPE inhibition assay toward HRV-4 in HeLa cell was used. […]. Column fractions were monitored by TLC on silica gel plates developed with chloroform and methanol (7:3 by volume) mobile phase. Fractions with similar R f values on the TLC plates were pooled. Active fractions 4 to 5 (EI, 2.44 g) and 7 (EII, 0.569 g) were obtained. The active fraction EI was rechromatographed on a silica gel column by elution with chloroform and methanol (70:30 by volume) to give nine fractions (each about 450 mL). A preparative HPLC was used for separation of constituents from the active fractions 3 to 5 (0.176 g). The column was a 4.6 mm i.d. × 150 mm Eclipse XDB-C18 (Agilent, Santa Clara, CA) using a mobile phase of methanol and water (3:7 by volume) at a flow rate of 0.5 mL/min. Chromatographic separations were monitored using a UV detector at 260 nm. […]. The three antiviral principles were characterized as paeonol (PA) (1), gallic acid (GA) (2), and 1,2,3,4,6-penta-O-galloyl-β-D-glucopyranose (PGG) (3) (Fig 1) by spectroscopic analyses, including MS and NMR. PA (1): compound 1 was isolated as an antibacterial principle from P. lactiflora root in our previous work, and the spectral data of compound 1 was largely identical to the published data. GA (2) was identified on the basis of the following evidence: white powder. UV (MeOH): λmax nm = 260. FT-IR: v max cm^–1 = 3491–3063 (OH stretch), 1608 (aromatic C = C). […] The interpretations of proton and carbon signals of compound 2 were largely consistent with those of Sakar et al.. PGG (3): compound 3 was isolated as an antibacterial principle from P. lactiflora root in our previous work, and the spectral data of compound 3 was largely identical to the published data.
Monolayers of HeLa and MRC5 cells were seeded onto a 96-well culture plate as stated previously. Subsequently, 90 μL media containing several different concentrations (1–1000 μg/mL) of each test material in DMSO was put into the wells, and then 10 μL of 10×TCID50 of the virus stock was added to produce an appropriate CPE within 2 days after infection. Ribavirin served as a reference control and was similarly prepared. Negative controls consisted of the DMSO solution. Viral inhibition rate (VIR) (%) was calculated according to the formula [21], VIR = (A tV—A cV)/(A cd—A cV) × 100, where A tV is the optical density measured with a given concentration of the test compound in HRV infected cells; A cV is the optical density measured for the control untreated HRV infected cells; A cd is the optical density measured for the control untreated HRV uninfected cells.
The CC50 and IC50 values were determined using GraphPad Prism 5 software program (GraphPad Software, La Jolla, CA). […] The selectivity index (SI) was determined as the ratio of CC50 to IC50 [23]. All data represent the mean ± SD of duplicate or triplicate samples of three independent experiments. Statistical analyses were carried out using SAS 9.13 program (SAS Institute, Cary, NC). Data from two groups were analyzed by a Student’s t-test, and multiple groups were analyzed by a one-way analysis of variance and Bonferroni multiple comparison post-test.

HRV-2 = assay: Virus titration assay, HRV-2 in MRC5 cultures; format: cell-based, human rhinovirus; details: PGG 20 μg/mL, PA 100 μg/mL, ribavirin 100 μg/mL; for Log (TCID50/mL) ± SE HRV-2: infected MRC5 cultures, 48 h, infected untreated control 3.93; for Reduction of virus replication (Log (TCID50/mL)) ± SE HRV-2: vs infected untreated control
Procedure: Virus titers in infected MRC-5 cultures treated with PA and PGG were measured as TCID50 using MTT-based titration method. In brief, MRC5 cells were seeded at 10^5 cells/mL in a 6-well plate. After 24 h, the cell monolayers were treated with 100 μg/mL PA or 20 μg/mL PGG and infected with HRV-2 or HRV-4 in a concentration of 10×TCID50/mL. Uninfected untreated and infected untreated cultures were included in the assay. The 100 μg/mL of ribavirin was used as a reference control. After 48 h incubation at 37°C, the cultures were frozen and thawed at −80°C/25°C. Cell debris was removed by centrifugation (2000 rpm) and the virus supernatants were collected. Virus titration was then performed in HeLa cell cultures. Initially, a 1:10 dilution of each supernatant was prepared followed by 10 serial 2-fold-dilutions, and added to HeLa cell monolayers. After 48 h, cell mortality was measured using an MTT assay stated previously. Graphs were built by plotting dead cell percentages toward virus dilution factors of each virus supernatant. The 50% infectivity point was calculated through a linear regression analysis of the curve.

[3] = Human rhinovirus sp., HRV4, HeLa

pIC50 (HRV-4; [3])	pIC50 (HRV-4)	SMILES	CC50 at 2 days [1] [µM]	CC50 at 2 days [2] [µM]	reduction of the HRV-2 titer (HRV-2) [%]	Log (TCID50/mL) ± SE HRV-2 (HRV-2)	Reduction of virus replication (Log (TCID50/mL)) ± SE HRV-2 (HRV-2)
3.29	3.29	COc1ccc(C(C)=O)c(O)c1 [PA, paeonol]	3140	3160	22.4	3.05 ± 0.046 b Log (TCID50/mL)	0.88 ± 0.046 Log (TCID50/mL)
3.49	3.49	NC(=O)c1ncn([C@@H]2O[C@H](CO)[C@@H](O)[C@H]2O)n1 [Ribavirin, reference compound]	2230	2340	30.3	2.74 ± 0.020 a Log (TCID50/mL)	1.19 ± 0.020 Log (TCID50/mL)

SMILES	pIC50 (HRV-4; [3])	pIC50 (HRV-4)	CC50 at 2 days [1] [µM]	CC50 at 2 days [2] [µM]	reduction of the HRV-2 titer (HRV-2) [%]	Log (TCID50/mL) ± SE HRV-2 (HRV-2)	Reduction of virus replication (Log (TCID50/mL)) ± SE HRV-2 (HRV-2)
O=C(OC[C@H]1O[C@@H](OC(=O)c2cc(O)c(O)c(O)c2)[C@H](OC(=O)c2cc(O)c(O)c(O)c2)[C@@H](OC(=O)c2cc(O)c(O)c(O)c2)[C@@H]1OC(=O)c1cc(O)c(O)c(O)c1)c1cc(O)c(O)c(O)c1 [PGG, 1,2,3,4,6-penta-O-galloyl-β-D-glucopyranose]	4.84	4.84	108	109	17.3	3.25 ± 0.075 b ^b Log (TCID50/mL)	0.68 ± 0.075 Log (TCID50/mL)
